Each compound was assayed against GST-tagged-Wee1 kinase (Homo sapiens, UniProt P30291) (assay: Wee1 time-resolved fluorescence equilibrium binding assay (displacement of Oregon Green-labeled ATP-competitive kinase probe)).
Procedure: Wee1 kinase was assayed using a time-resolved fluorescence equilibrium binding assay monitoring displacement of a rapidly reversible Oregon Green-labeled ATP-competitive kinase probe (N-(2-(2-(2-(4-(4-(5-chloro-4-(2-(1-hydroxycyclobutyl)thiazol-5-yl)-1H-pyrrolo[2,3-b]pyridin-2-yl)phenyl)piperazin-1-yl)ethoxy)ethoxy)ethyl)-2′,7′-difluoro-3′,6′-dihydroxy-3-oxo-3H-spiro[isobenzofuran-1,9′-xanthene]-5-carboxamide) by competitive Wee1 inhibitors.

Chain of GST-tagged-Wee1 kinase (P30291 whole entry): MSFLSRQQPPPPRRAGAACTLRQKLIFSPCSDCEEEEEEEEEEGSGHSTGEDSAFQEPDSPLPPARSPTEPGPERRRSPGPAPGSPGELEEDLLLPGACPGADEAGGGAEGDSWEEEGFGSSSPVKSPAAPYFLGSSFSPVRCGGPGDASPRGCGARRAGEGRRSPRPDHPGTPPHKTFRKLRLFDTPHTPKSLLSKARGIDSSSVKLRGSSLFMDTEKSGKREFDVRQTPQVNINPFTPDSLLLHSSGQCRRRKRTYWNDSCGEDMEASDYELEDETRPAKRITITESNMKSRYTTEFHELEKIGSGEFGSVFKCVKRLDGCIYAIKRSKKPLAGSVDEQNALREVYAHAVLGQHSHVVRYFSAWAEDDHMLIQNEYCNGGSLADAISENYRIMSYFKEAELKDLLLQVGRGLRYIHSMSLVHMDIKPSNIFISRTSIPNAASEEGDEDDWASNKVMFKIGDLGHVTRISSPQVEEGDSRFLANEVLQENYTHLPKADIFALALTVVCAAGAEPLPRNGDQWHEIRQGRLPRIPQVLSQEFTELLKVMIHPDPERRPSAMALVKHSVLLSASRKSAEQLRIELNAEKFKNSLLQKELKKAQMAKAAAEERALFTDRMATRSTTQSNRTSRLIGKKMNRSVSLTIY

Row | SMILES | Ki
1 | COc1ccccc1-n1nc(-c2ccccc2)c2nc(Nc3ccc(N4CCN(C)CC4)cc3)ncc2c1=O [Example 30, 6-(2-methoxyphenyl)-2-{[4-(4-methylpiperazin-1-yl)phenyl]amino}-8-phenylpyrimido[4,5-d]pyridazin-5(6H)-one] | 1 nM
2 | CN1CCN(c2ccc(Nc3ncc4c(=O)n(-c5ccccc5C(F)(F)F)nc(-c5ccccc5)c4n3)cc2)CC1 [Example 31, 2-{[4-(4-methylpiperazin-1-yl)phenyl]amino}-8-phenyl-6-[2-(trifluoromethyl)phenyl]pyrimido[4,5-d]pyridazin-5(6H)-one] | 0.8 nM
3 | CN1CCN(c2ccc(Nc3ncc4c(=O)n(-c5ccccc5)nc(-c5ccco5)c4n3)cc2)CC1 [Example 34, 8-(2-furyl)-2-{[4-(4-methylpiperazin-1-yl)phenyl]amino}-6-phenylpyrimido[4,5-d]pyridazin-5(6H)-one] | 4 nM
4 | C=CCn1nc(-c2ccccc2F)c2nc(Nc3ccc(N4CCN(C)CC4)cc3)ncc2c1=O [Example 35, 6-allyl-8-(2-fluorophenyl)-2-{[4-(4-methylpiperazin-1-yl)phenyl]amino}pyrimido[4,5-d]pyridazin-5(6H)-one] | 18 nM
5 | Cc1ccccc1-n1nc(-c2ccccc2F)c2nc(Nc3ccc(N4CCN(C)CC4)cc3)ncc2c1=O [Example 36, 8-(2-fluorophenyl)-6-(2-methylphenyl)-2-{[4-(4-methylpiperazin-1-yl)phenyl]amino}pyrimido[4,5-d]pyridazin-5(6H)-one] | 3 nM
6 | CN1CCN(c2ccc(Nc3ncc4c(=O)n(-c5ccccc5)nc(-c5ccccc5F)c4n3)cc2)CC1 [Example 37, 8-(2-fluorophenyl)-2-{[4-(4-methylpiperazin-1-yl)phenyl]amino}-6-phenylpyrimido[4,5-d]pyridazin-5(6H)-one] | 18 nM
7 | CN1CCN(c2ccc(Nc3ncc4c(=O)n(-c5ccccc5Cl)nc(-c5ccc(Cl)cc5Cl)c4n3)cc2)CC1 [Example 38, 6-(2-chlorophenyl)-8-(2,4-dichlorophenyl)-2-{[4-(4-methylpiperazin-1-yl)phenyl]amino}pyrimido[4,5-d]pyridazin-5(6H)-one] | 24 nM
8 | CN1CCN(c2ccc(Nc3ncc4c(=O)n(-c5ccccc5C(F)(F)F)nc(-c5ccc(Cl)cc5Cl)c4n3)cc2)CC1 [Example 39, 8-(2,4-dichlorophenyl)-2-{[4-(4-methylpiperazin-1-yl)phenyl]amino}-6-[2-(trifluoromethyl)phenyl]pyrimido[4,5-d]pyridazin-5(6H)-one] | 250 nM
9 | CN1CCN(c2ccc(Nc3ncc4c(=O)n(-c5ccccc5Cl)nc(-c5ccccc5F)c4n3)cc2)CC1 [Example 40, 6-(2-chlorophenyl)-8-(2-fluorophenyl)-2-{[4-(4-methylpiperazin-1-yl)phenyl]amino}pyrimido[4,5-d]pyridazin-5(6H)-one] | 1 nM
10 | Cc1ccccc1-n1nc(-c2ccc(Cl)cc2Cl)c2nc(Nc3ccc(N4CCN(C)CC4)cc3)ncc2c1=O [Example 41, 8-(2,4-dichlorophenyl)-6-(2-methylphenyl)-2-{[4-(4-methylpiperazin-1-yl)phenyl]amino}pyrimido[4,5-d]pyridazin-5(6H)-one] | 38 nM
11 | CN1CCN(c2ccc(Nc3ncc4c(=O)n(-c5ccccc5)nc(-c5ccc(Cl)cc5Cl)c4n3)cc2)CC1 [Example 42, 8-(2,4-dichlorophenyl)-2-{[4-(4-methylpiperazin-1-yl)phenyl]amino}-6-phenylpyrimido[4,5-d]pyridazin-5(6H)-one] | 400 nM
12 | COc1ccccc1-n1nc(-c2ccc(Cl)cc2Cl)c2nc(Nc3ccc(N4CCN(C)CC4)cc3)ncc2c1=O [Example 43, 8-(2,4-dichlorophenyl)-6-(2-methoxyphenyl)-2-{[4-(4-methylpiperazin-1-yl)phenyl]amino}pyrimido[4,5-d]pyridazin-5(6H)-one] | 260 nM
13 | CN1CCN(c2ccc(Nc3ncc4c(=O)n(-c5cccc(Cl)c5)nc(-c5ccc(Cl)cc5Cl)c4n3)cc2)CC1 [Example 44, 6-(3-chlorophenyl)-8-(2,4-dichlorophenyl)-2-{[4-(4-methylpiperazin-1-yl)phenyl]amino}pyrimido[4,5-d]pyridazin-5(6H)-one] | 520 nM
14 | CN1CCN(c2ccc(Nc3ncc4c(=O)n(-c5c(Cl)cccc5Cl)nc(-c5ccccc5F)c4n3)cc2)CC1 [Example 45, 6-(2,6-dichlorophenyl)-8-(2-fluorophenyl)-2-{[4-(4-methylpiperazin-1-yl)phenyl]amino}pyrimido[4,5-d]pyridazin-5(6H)-one] | 1 nM
15 | CN1CCN(c2ccc(Nc3ncc4c(=O)n(-c5c(Cl)cccc5Cl)nc(-c5ccccc5)c4n3)cc2)CC1 [Example 46, 6-(2,6-dichlorophenyl)-2-{[4-(4-methylpiperazin-1-yl)phenyl]amino}-8-phenylpyrimido[4,5-d]pyridazin-5(6H)-one] | 0.3 nM
16 | C=CCn1nc(-c2ccc(Cl)cc2Cl)c2nc(Nc3ccc(N4CCN(C)CC4)cc3)ncc2c1=O [Example 47, 6-allyl-8-(2,4-dichlorophenyl)-2-{[4-(4-methylpiperazin-1-yl)phenyl]amino}pyrimido[4,5-d]pyridazin-5(6H)-one] | 240 nM

Row | SMILES | Ki
17 | Cc1ccccc1-n1nc(C2CCCC2)c2nc(Nc3ccc(N4CCN(C)CC4)cc3)ncc2c1=O [Example 49, 8-cyclopentyl-6-(2-methylphenyl)-2-{[4-(4-methylpiperazin-1-yl)phenyl]amino}pyrimido[4,5-d]pyridazin-5(6H)-one] | 9 nM
18 | Cc1cccc(-c2nn(-c3ccccc3)c(=O)c3cnc(Nc4ccc(N5CCN(C)CC5)cc4)nc23)c1 [Example 50, 8-(3-methylphenyl)-2-{[4-(4-methylpiperazin-1-yl)phenyl]amino}-6-phenylpyrimido[4,5-d]pyridazin-5(6H)-one] | 5 nM
19 | Cc1cccc(-c2nn(-c3ccccc3Cl)c(=O)c3cnc(Nc4ccc(N5CCN(C)CC5)cc4)nc23)c1 [Example 51, 6-(2-chlorophenyl)-8-(3-methylphenyl)-2-{[4-(4-methylpiperazin-1-yl)phenyl]amino}pyrimido[4,5-d]pyridazin-5(6H)-one] | 0.4 nM
20 | Cc1cccc(-c2nn(-c3ccccc3C)c(=O)c3cnc(Nc4ccc(N5CCN(C)CC5)cc4)nc23)c1 [Example 52, 6-(2-methylphenyl)-8-(3-methylphenyl)-2-{[4-(4-methylpiperazin-1-yl)phenyl]amino}pyrimido[4,5-d]pyridazin-5(6H)-one] | 1 nM
21 | CN1Cc2cc(Nc3ncc4c(=O)n(-c5ccccc5Cl)nc(-c5ccccc5)c4n3)ccc2C2(CC2)C1 [Example 53, 6-(2-chlorophenyl)-2-[(2′-methyl-2′,3′-dihydro-1′H-spiro[cyclopropane-1,4′-isoquinolin]-7′-yl)amino]-8-phenylpyrimido[4,5-d]pyridazin-5(6H)-one] | 0.1 nM
22 | CN1CCN(c2ccc(Nc3ncc4c(=O)n(-c5ccccc5Cl)nc(C5CCCC5)c4n3)cc2)CC1 [Example 55, 6-(2-chlorophenyl)-8-cyclopentyl-2-{[4-(4-methylpiperazin-1-yl)phenyl]amino}pyrimido[4,5-d]pyridazin-5(6H)-one] | 2 nM
23 | CN1CCN(c2ccc(Nc3ncc4c(=O)n(-c5cccc(Cl)c5)nc(C5CCCC5)c4n3)cc2)CC1 [Example 56, 6-(3-chlorophenyl)-8-cyclopentyl-2-{[4-(4-methylpiperazin-1-yl)phenyl]amino}pyrimido[4,5-d]pyridazin-5(6H)-one] | 63 nM
24 | COc1ccccc1-n1nc(C2CCCC2)c2nc(Nc3ccc(N4CCN(C)CC4)cc3)ncc2c1=O [Example 57, 8-cyclopentyl-6-(2-methoxyphenyl)-2-{[4-(4-methylpiperazin-1-yl)phenyl]amino}pyrimido[4,5-d]pyridazin-5(6H)-one] | 7 nM
25 | COc1cccc(-c2nn(-c3ccccc3)c(=O)c3cnc(Nc4ccc(N5CCN(C)CC5)cc4)nc23)c1 [Example 58, 8-(3-methoxyphenyl)-2-{[4-(4-methylpiperazin-1-yl)phenyl]amino}-6-phenylpyrimido[4,5-d]pyridazin-5(6H)-one] | 2 nM
26 | CN1CCN(c2ccc(Nc3ncc4c(=O)n(-c5ccccc5)nc(-c5ccc(-c6ncccn6)cc5)c4n3)cc2)CC1 [Example 59, 2-{[4-(4-methylpiperazin-1-yl)phenyl]amino}-6-phenyl-8-[4-(pyrimidin-2-yl)phenyl]pyrimido[4,5-d]pyridazin-5(6H)-one] | 3 nM
27 | CN1CCN(c2ccc(Nc3ncc4c(=O)n(-c5ccccc5Cl)nc(-c5ccccn5)c4n3)cc2)CC1 [Example 60, 6-(2-chlorophenyl)-2-{[4-(4-methylpiperazin-1-yl)phenyl]amino}-8-(pyridin-2-yl)pyrimido[4,5-d]pyridazin-5(6H)-one] | 1 nM
28 | CN1CCN(c2ccc(Nc3ncc4c(=O)n(-c5ccccc5Cl)nc(-c5ccc(-c6ncccn6)cc5)c4n3)cc2)CC1 [Example 61, 6-(2-chlorophenyl)-2-{[4-(4-methylpiperazin-1-yl)phenyl]amino}-8-[4-(pyrimidin-2-yl)phenyl]pyrimido[4,5-d]pyridazin-5(6H)-one] | < 1 nM
29 | C=CCn1nc(-c2ccc(-c3ncccn3)cc2)c2nc(Nc3ccc(N4CCN(C)CC4)cc3)ncc2c1=O [Example 62, 6-allyl-2-{[4-(4-methylpiperazin-1-yl)phenyl]amino}-8-[4-(pyrimidin-2-yl)phenyl]pyrimido[4,5-d]pyridazin-5(6H)-one] | 11 nM
30 | C=CCn1nc(-c2cccc(OC)c2)c2nc(Nc3ccc(N4CCN(C)CC4)cc3)ncc2c1=O [Example 63, 6-allyl-8-(3-methoxyphenyl)-2-{[4-(4-methylpiperazin-1-yl)phenyl]amino}pyrimido[4,5-d]pyridazin-5(6H)-one] | 5 nM
31 | Cc1ccccc1-n1nc(-c2ccc(-c3ncccn3)cc2)c2nc(Nc3ccc(N4CCN(C)CC4)cc3)ncc2c1=O [Example 64, 6-(2-methylphenyl)-2-{[4-(4-methylpiperazin-1-yl)phenyl]amino}-8-[4-(pyrimidin-2-yl)phenyl]pyrimido[4,5-d]pyridazin-5(6H)-one] | 0.3 nM
